From ChEMBL document CHEMBL1177817, “Betulin and ursolic acid synthetic derivatives as inhibitors of Papilloma virus” (Bioorg Med Chem Lett, 2010)
Active and inactive are the calls of the source. The calls are words filed in the database; no cut-off is given here.

Tests used:
Format in all cases: functional, organism-based
Influenza A virus [1] = experiment: Antiviral activity against influenza A virus H5N1 assessed as inhibition of viral replication
Influenza B virus = experiment: Antiviral activity against influenza B virus assessed as inhibition of viral replication
Human alphaherpesvirus 1 = experiment: Antiviral activity against HSV1 assessed as inhibition of viral replication
Influenza A virus [2] = experiment: Antiviral activity against influenza A virus H3N2 assessed as inhibition of viral replication
Human alphaherpesvirus 2 = experiment: Antiviral activity against HSV2 assessed as inhibition of viral replication
Hepatitis C virus = experiment: Antiviral activity against HCV assessed as inhibition of viral replication; settings: Hepacivirus hominis
Hepatitis B virus = experiment: Antiviral activity against HBV assessed as inhibition of viral DNA replication at 10 uM
Influenza A virus [3] = experiment: Antiviral activity against influenza A virus H1N1 assessed as inhibition of viral replication

With `C=C(C)[C@@H]1CC[C@]2(COCCCNCCC#N)CC[C@]3(C)[C@H](CC[C@@H]4[C@@]5(C)CC[C@H](OC(=O)c6cccnc6)C(C)(C)[C@@H]5CC[C@]43C)[C@@H]12` the Activity (Influenza A virus [1]) was “inactive”, the Activity (Influenza B virus) was “inactive” and the Activity (Human alphaherpesvirus 1) was “inactive”. The Activity (Influenza A virus [2]) was “inactive” and the Activity (Human alphaherpesvirus 2) was “inactive”.
`C=C(C)[C@@H]1CC[C@]2(COC(=O)c3cccnc3)CC[C@]3(C)[C@H](CC[C@@H]4[C@@]5(C)CC[C@H](OC(=O)c6cccnc6)C(C)(C)[C@@H]5CC[C@]43C)[C@@H]12` was tested, and the Activity (Influenza A virus [1]) was “inactive”, the Activity (Influenza B virus) was “inactive” and the Activity (Human alphaherpesvirus 1) was “inactive”. For the same compound, the Activity (Influenza A virus [2]) was “inactive” and the Activity (Human alphaherpesvirus 2) was “inactive”.
With `C=C(C)[C@@H]1CC[C@]2(C(=O)O)CC[C@]3(C)[C@H](CC[C@@H]4[C@@]5(C)CC[C@H](OC(=O)c6cccnc6)C(C)(C)[C@@H]5CC[C@]43C)[C@@H]12` the Activity (Influenza A virus [1]) was “inactive”, the Activity (Influenza B virus) was “inactive” and the Activity (Human alphaherpesvirus 1) was “inactive”. For the same compound, the Activity (Influenza A virus [2]) was “inactive” and the Activity (Human alphaherpesvirus 2) was “inactive”.
In the case of `C[C@H]1[C@H](C)CC[C@]2(C(=O)O)CC[C@]3(C)C(=CC[C@@H]4[C@@]5(C)CC/C(=N\OCCC#N)C(C)(C)[C@@H]5CC[C@]43C)[C@H]12`, the Activity (Influenza A virus [1]) is reported as “inactive”, the Activity (Influenza B virus) is reported as “inactive” and the Activity (Human alphaherpesvirus 1) is reported as “inactive”. For the same compound, the Activity (Influenza A virus [2]) was “inactive” and the Activity (Human alphaherpesvirus 2) was “inactive”.
`C#C[C@@H]1CC[C@]2(CO)CC[C@]3(C)[C@H](CC[C@@H]4[C@@]5(C)CC[C@H](O)C(C)(C)[C@@H]5CC[C@]43C)[C@@H]12` was tested, and the Activity (Influenza A virus [1]) was “inactive”, the Activity (Influenza B virus) was “inactive” and the Activity (Human alphaherpesvirus 1) was “inactive”. The Activity (Influenza A virus [2]) was “inactive”, the Activity (Hepatitis C virus) was “Active” and the Activity (Hepatitis B virus) was “inactive”. For the same compound, the Activity (Human alphaherpesvirus 2) was “inactive”.
`C=C(C)[C@@H]1CC[C@]2(COC(=O)/C=C/c3ccc(OC)cc3)CC[C@]3(C)[C@H](CC[C@@H]4[C@@]5(C)CC[C@H](O)C(C)(C)[C@@H]5CC[C@]43C)[C@@H]12` was tested, and the Activity (Influenza A virus [3]) was “Active”.
